Source: PMC11747885, “Potent inhibitors of the human RNA ligase Rlig1 highlights its role in RNA integrity maintenance under oxidative cellular stress” (Chemical Science, 2025)

Molecular target: T1, Rlig1-AMP (Homo sapiens, UniProt Q8N999)
T1 construct: made in house; host or cells: E. coli BL21 (DE3), pET15b-Rlig1
Assay: FRET-based high-throughput screening of inhibitors for Rlig1-AMP
Format: biochemical
Details: for Raw data [w Enyzm]: with enzyme; for Raw data [w/o Enzym]: without enzyme

[1] = sheet HTS hits, MedChemExpress library
[2] = sheet HTS hits, difference of raw data w/o and w enzyme
[3] = HTS hits, difference of raw data w/o and w enzyme
[4] = HTS hits, normalised value of 1-D Distance
[5] = HTS hits, MedChemExpress library
[6] = HTS hits, difference of raw data without and with enzyme
[7] = HTS hits, normalized value (npi)

T1 sequence (Q8N999 whole entry): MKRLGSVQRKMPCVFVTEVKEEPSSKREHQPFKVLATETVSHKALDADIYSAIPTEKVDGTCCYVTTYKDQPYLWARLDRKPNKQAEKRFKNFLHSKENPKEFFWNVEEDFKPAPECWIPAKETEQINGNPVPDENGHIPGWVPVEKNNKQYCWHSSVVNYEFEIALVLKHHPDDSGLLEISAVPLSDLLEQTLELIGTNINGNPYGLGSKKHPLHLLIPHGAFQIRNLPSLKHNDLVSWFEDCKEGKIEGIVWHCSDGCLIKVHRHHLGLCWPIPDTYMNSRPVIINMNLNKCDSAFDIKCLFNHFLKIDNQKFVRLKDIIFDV

SMILES | 1-D Distance.npi [1] | 1-D Distance [2] | Raw data [w Enyzm] (sheet HTS hits) | Raw data [w/o Enzym] (sheet HTS hits) | 1-D Distance [3] | Raw data [w Enyzm] (HTS hits) | Raw data [w/o Enzym] (HTS hits) | also measured
COc1cccc2c1C(=N)c1c(O)c3c(c(O)c1C2=O)C[C@@](O)(C(C)=O)C[C@@H]3O[C@H]1C[C@H](N)[C@H](O)[C@H](C)O1.Cl [5-Iminodaunorubicin (hydrochloride)] | 90.1534 | 802 | 2925 | 3727 | – | – | – | –
COc1cccc2c1C(=N)c1c(O)c3c(c(O)c1C2=O)C[C@@](O)(C(C)=O)C[C@@H]3O[C@H]1C[C@H](N)[C@H](O)[C@H](C)O1 [5-Iminodaunorubicin] | – | – | – | – | 1374 | 2360 | 3734 | 1-D Distance.npi [4]: 80.0753
CN(C)CCSSCCNC(=O)C1CCN(C(=O)CSc2ccc(Cl)cc2)CC1.O=C(O)C(F)(F)F [6H05 (TFA)] | – | – | – | – | 1774 | 8996 | 10770 | 1-D Distance.npi [4]: 75.4127
CC(C)=CC[C@H](O)C1=CC(=O)c2c(O)ccc(O)c2C1=O [(-)-Alkannin] | – | – | – | – | – | 3885 | – | 1-D Distance.npi [5]: 70.9637; 1-D Distance [6]: 1812
Cc1ncsc1-c1ccc(CNC(=O)[C@@H]2C[C@@H](O)CN2C(=O)[C@@H](NC(=O)CCN)C(C)(C)C)cc1.Cl.Cl [(S,R,S)-AHPC-C2-NH2 (dihydrochloride)] | 76.891 | 1672 | 9239 | 10911 | – | – | – | –
CCCCCCCCCCCCCCCC(=O)NCCCC[C@@H](N)C(=O)NCCCNCCCCNCCCN.Cl.Cl.Cl.Cl [AMXT-1501 tetrahydrochloride] | – | – | – | – | 45 | 4942 | 4897 | 1-D Distance.npi [7]: 103.958
O=C(O)c1ccc(-c2ccc(N(c3ccc(-c4ccc(C(=O)O)cc4)cc3)c3ccc(-c4ccc(C(=O)O)cc4)cc3)cc2)cc1 [Antibacterial agent 18] | – | – | – | – | – | 12110 | 13337 | 1-D Distance.npi [5]: 80.2581; 1-D Distance [6]: 1227
CN1CCC=C(C(=O)O)C1 [Arecaidine] | – | – | – | – | 1949 | 8786 | 10735 | 1-D Distance.npi [4]: 71.9903
C=C1C(=O)O[C@@H]2[C@H]3C(C)=CC[C@@]34O[C@@]4(C)CC[C@@H]12 [Arglabin] | – | – | – | – | 1673 | 8885 | 10558 | –
CC(=O)Nc1cc(Oc2ccc3c(C(=O)Nc4ccc(CN5CCN(C)CC5)c(C(F)(F)F)c4)cccc3c2)ncn1 [BGG463] | – | – | – | – | 797 | 8276 | 9073 | 1-D Distance.npi [7]: 93.5609
C[n+]1ccc(/C=C/c2ccc3c(c2)c2cc(/C=C/c4cc[n+](C)cc4)ccc2n3CCOCCOCCOCC[N+]2(C)CCCCC2)cc1.[I-].[I-].[I-] [BMVC-8C3O] | – | – | – | – | 496 | 3841 | 4337 | 1-D Distance.npi [7]: 99.5333
O=c1[nH]c(=O)c2ccccc2[nH]1 [Benzoyleneurea] | – | – | – | – | – | 9137 | 11028 | 1-D Distance.npi [5]: 70.2932; 1-D Distance [6]: 1891
O=C(O)CCCN1CCC(O[C@@H](c2ccc(Cl)cc2)c2ccccn2)CC1.O=S(=O)(O)c1ccccc1 [Bepotastine (besilate)] | 70.3956 | 1900 | 8762 | 10662 | – | – | – | –
C#CCOCCOCCOCCOCC#C [Bis-propargyl-PEG3] | 78.8376 | 1567 | 9208 | 10775 | – | – | – | –
CN(C)c1ccc(Nc2c3ccc(NC(=O)CCN4CCCC4)cc3nc3cc(NC(=O)CCN4CCCC4)ccc23)cc1.Cl.Cl.Cl [Braco-19 (trihydrochloride)] | – | – | – | – | 99 | 2490 | 2391 | 1-D Distance.npi [4]: 102.921
CC(=O)Nc1ccc(S(=O)(=O)[O-])c2cc(S(=O)(=O)[O-])c(N=Nc3ccc(N=Nc4ccc(S(=O)(=O)[O-])cc4)c4ccc(S(=O)(=O)[O-])cc34)c(O)c12.[Na+].[Na+].[Na+].[Na+] [Brilliant Black BN] | – | – | – | – | – | 1620 | 1348 | 1-D Distance.npi [5]: 98.2105; 1-D Distance [6]: 272
CC(C)(C)OC(=O)CCOCCBr [Bromo-PEG1-C2-Boc] | 72.9978 | 1882 | 9154 | 11036 | – | – | – | –
CC(/C=C/C=C(\C)C(=O)O[C@@H]1O[C@H](CO[C@@H]2O[C@H](CO)[C@@H](O)[C@H](O)[C@H]2O)[C@@H](O)[C@H](O)[C@H]1O)=C\C=C\C=C(C)\C=C\C=C(/C)C(=O)O[C@@H]1O[C@H](CO[C@@H]2O[C@H](CO)[C@@H](O)[C@H](O)[C@H]2O)[C@@H](O)[C@H](O)[C@H]1O [Crocin] | – | – | – | – | – | 2370 | 3763 | 1-D Distance [6]: 1393
COc1cccc2c1C(=O)c1c(O)c3c(c(O)c1C2=O)C[C@@](O)(C(C)=O)C[C@@H]3O[C@H]1C[C@H](NC(=O)OCc2ccc(O[C@@H]3O[C@H](CO)[C@H](O)[C@H](O)[C@H]3O)c([N+](=O)[O-])c2)[C@H](O)[C@H](C)O1 [Daun02] | – | – | – | – | 1434 | 2111 | 3545 | 1-D Distance.npi [7]: 83.3585
Cc1cccc2c3c(ccc12)C(=O)C1=C(OCC1C)C3=O (stereo not drawn) [Dihydroisotanshinone I] | 72.3395 | 1938 | 11164 | 13102 | – | – | – | –
CC1=NN(c2ccc(C)c(C)c2)C(=O)/C1=N\Nc1cccc(-c2cccc(C(=O)O)c2)c1O.NCCO.NCCO [Eltrombopag (Olamine)] | 92.4928 | 680 | 3683 | 4363 | – | – | – | –
COc1cccc2c1C(=O)c1c(O)c3c(c(O)c1C2=O)C[C@@](O)(C(=O)CO)C[C@@H]3O[C@H]1C[C@H](N)[C@@H](O)[C@H](C)O1.Cl [Epirubicin (hydrochloride)] | – | – | – | – | – | 1246 | – | 1-D Distance.npi [5]: 99.0682; 1-D Distance [6]: 316
CC(=O)O[C@H]1C[C@@]2(C)[C@@H](C[C@@H](O)[C@H]3[C@@]4(C)CC[C@@H](O)[C@@H](C)[C@@H]4CC[C@@]32C)/C1=C(\CCC=C(C)C)C(=O)[O-].[Na+] [Fusidic acid (sodium salt)] | 75.4657 | 1636 | 9299 | 10935 | – | – | – | –
C=CC1=C(C)c2cc3[n-]c(cc4nc(cc5[n-]c(cc1n2)c(C)c5C=C)C(C)=C4CCC(=O)O)c(CCC(=O)O)c3C.[Cl-].[Fe+3] [Hemin] | 76.0753 | 1716 | 4406 | 6122 | – | – | – | –
C/C1=C2/[N-]C([C@H](CC(N)=O)[C@@]2(C)CCC(=O)NC[C@@H](C)OP(=O)([O-])O[C@H]2[C@@H](O)[C@@H](n3cnc4cc(C)c(C)cc43)O[C@@H]2CO)[C@]2(C)N=C(/C(C)=C3N=C(/C=C4N=C1[C@@H](CCC(N)=O)C\4(C)C)[C@@H](CCC(N)=O)[C@]\3(C)CC(N)=O)[C@@H](CCC(N)=O)[C@]2(C)CC(N)=O.CC(=O)[O-].[Co+3] [Hydroxocobalamin (acetate)] | – | – | – | – | – | 4827 | 6279 | 1-D Distance.npi [5]: 78.9236; 1-D Distance [6]: 1452
